According to US20080305186A1, “Method and Composition for the Treatment of Cardiac Hypertrophy” (BOARD OF REGENTS, THE UNIVERSITY OF TEXAS SYSTEM, priority 2007, published 2008):

System: cardiac gene expression
Experiment: Microarray analysis of cardiac gene expression (GeneChip Mouse Genome 430 2.0)
Assay type: in vivo, mice
Experimental: Microarray Sample Preparation and Analysis. Animal hearts were rapidly removed, and the atria and right ventricles were cut and immediately plunged into TRIzol Reagent (Life Technologies). Total RNA was isolated following the manufacturer's instructions, purified by phenol-chloroform extraction and then ethanol precipitation, and 20 μg further processed for microarray analysis. Briefly, cDNA synthesis, in vitro transcription, and labeling and fragmentation to produce the oligonucleotide probes were performed as instructed by the GeneChip manufacturer (Affymetrix). The probes were first hybridized to a test array (Affymetrix) and then to the GeneChip Mouse Genome 430 2.0 Array, using the GeneChip Hybridization Oven 640. The chips were washed in a GeneChip Fluidics Station 450 (Affymetrix), and the results were visualized with a GeneChip G7 scanner (Affymetrix). RMA normalization, pairwise comparisons, Student's t test and Benjamini and Hochberg correction were subsequently performed using GeneSifter (VizX Labs, Seattle, Wash.) and Spotfire DecisionSite 8.3 (Spotfire, Inc., Somerville, Mass.).
Effects on Gene Expression Profile. […] One mouse heart was used for each array, and was performed in triplicate, generating a total of 12 arrays. GeneSifter was used to perform RMA normalization, pairwise comparisons of averaged signal intensity values, and Student's t-test with Benjamini and Hochberg correction, and Spotfire was used to perform pairwise comparisons. […] Additionally, genes that were altered between any two N or cardiac hypertrophy samples were removed, as these alterations most likely represented normal variations between mice.

## C[C@H]1c2cccc(O)c2C(=O)C2=C(O)[C@]3(O)C(=O)C(C(N)=O)=C(O)[C@@H](N(C)C)[C@@H]3[C@@H](O)[C@@H]21 [doxycycline]
GenBank BC005738, heart, drug + isoproterenol vs isoproterenol-only mice, CH vs normal FC 2.1
  FC Tubulointerstitial nephritis antigen-like (Tinagl): −1.8 fold
GenBank BC008117, heart, drug + isoproterenol vs isoproterenol-only mice, CH vs normal FC −2.7
  FC Tubulin alpha (Tuba2): 4.1 fold
GenBank BC008626, vs mice given only isoproterenol
  FC Intercellular adhesion molecule (Icam1): −2.7
GenBank BC011158, vs mice given only isoproterenol
  FC Similar to serine protease inhibitor-2 related sequee 1 (Serpina3m): −2.4
GenBank BC011470, vs mice given only isoproterenol
  FC Phosphatidylinositol binding clathrin assembly protein (Picalm): −1.5
GenBank BC016576, vs mice given only isoproterenol
  FC Isochorismatase domain containing 1 (Isoc1): 2.8
GenBank BC017134, vs mice given only isoproterenol
  FC EGF, latrophilin seven transmembrane domain containing 1 (Eltd1): −2.0
GenBank BC018275, vs mice given only isoproterenol
  FC Ras homolog gene family, member B (RhoB): −2.1
GenBank BC018323, vs mice given only isoproterenol
  FC D site albumin promoter binding protein (Dbp): 10.2
GenBank BC019123, vs mice given only isoproterenol
  FC RAD52 homolog (S. cerevisiae) (Rad52): −1.8
GenBank BC019794, vs mice given only isoproterenol
  FC Leucine-rich repeat-containing 3b (Lrrc3b): 1.9
GenBank BC024519, vs mice given only isoproterenol
  FC Solute carrier family 45, member 3 (Slc45a3): −1.8
GenBank BC025502, vs mice given only isoproterenol
  FC Rho GTPase activating protein 24 (Arhgap24): −1.8
GenBank BC026425, vs mice given only isoproterenol
  FC Motile sperm domain containing 2 (Mospd): −1.7
GenBank BC027262, vs mice given only isoproterenol
  FC Similar to metallothionein 1 (Mt1): −2.7
GenBank BE136057, vs mice given only isoproterenol
  FC Guanine deaminase (Gda): −1.7
GenBank BE553782, vs mice given only isoproterenol
  FC EST: −1.6
GenBank BE630303, vs mice given only isoproterenol
  FC EST: −1.8
GenBank BE630363, vs mice given only isoproterenol
  FC ESTs: −3.1
GenBank BE685667, vs mice given only isoproterenol
  FC ESTs: −3.2
GenBank BE687858, vs mice given only isoproterenol
  FC EST: −1.5
GenBank BE852759, vs mice given only isoproterenol
  FC EST: 1.7
GenBank BF011461, vs mice given only isoproterenol
  FC Retinoblastoma binding protein 4 (Rbbp4): 2.1
GenBank BF121558, vs mice given only isoproterenol
  FC Methyl-CpG binding domain protein 1 (Mbd1): −1.8
GenBank BF134272, vs mice given only isoproterenol
  FC SET translocation (Set): 2.0
GenBank BF179910, vs mice given only isoproterenol
  FC Protein tyrosine phosphatase 4a1 (Ptp4a1): −1.9
GenBank BF467278, vs mice given only isoproterenol
  FC Potassium channel, subfamily K, member 3 (Kcnk3): 3.9
GenBank BF578669, vs mice given only isoproterenol
  FC Smoothelin (Smtn): 1.5
GenBank BF780807, vs mice given only isoproterenol
  FC EST: −1.9
GenBank BG067678, vs mice given only isoproterenol
  FC ESTs: 2.6
GenBank BG068705, vs mice given only isoproterenol
  FC EST: −1.7
GenBank BG069700, vs mice given only isoproterenol
  FC SET domain containing (lysine methyltransferase) 8)Setd8): 1.9
GenBank BG070037, vs mice given only isoproterenol
  FC Neuronal PAS domain protein 2 (Npas2): −2.6
GenBank BG073502, vs mice given only isoproterenol
  FC Pleckstrin homology domain containing, family G (with RhoGef domain) member 1 (Plekhg1): −2.0
GenBank BG074706, vs mice given only isoproterenol
  FC Microtubule-actin crosslinking factor 1 (Macf1): 2.7
GenBank BG075165, vs mice given only isoproterenol
  FC Insulin-like growth factor 1 (Igf1): 2.3
GenBank BG076140, 1st listing, vs mice given only isoproterenol
  FC p53 regulated PA26 nuclear protein (Sestrin 1) (Sesn1): −2.9
GenBank BG076140, 2nd listing, vs mice given only isoproterenol
  FC p53 regulated PA26 nuclear protein (Sestrin 1) (Sesn1): −3.5
GenBank BG092512, vs mice given only isoproterenol
  FC EST: −2.9
GenBank BG793483, heart, drug + isoproterenol vs isoproterenol-only mice, CH vs normal FC 2.4
  FC Transforming growth factor, beta receptor II (Tgfbr2): −2.3 fold
GenBank BG916957, vs mice given only isoproterenol
  FC Restin-like 2 (Rsnl2): 1.9
GenBank BI076714, vs mice given only isoproterenol
  FC mVL30-1 retroelement: −2.1
GenBank BI155184, vs mice given only isoproterenol
  FC Methylcrotonoyl-Coenzyme A carboxylase 2 (beta) (Mccc2): 1.7
GenBank BI466416, heart, drug + isoproterenol vs isoproterenol-only mice, CH vs normal FC 2.6
  FC Transforming, acidic coiled-coil containing protein 2 (Tacc2): −2.5 fold
GenBank BI663145, vs mice given only isoproterenol
  FC PHD finger protein 15 (Phf15): −2.1
GenBank BI788452, heart, drug + isoproterenol vs isoproterenol-only mice, CH vs normal FC 3.2
  FC Tissue inhibitor of metalloproteinase 4 (Timp4): −3.1 fold
GenBank BM115255, heart, drug + isoproterenol vs isoproterenol-only mice, CH vs normal FC 7.5
  FC Zi finger and BTB domain containing 16 (Zbtb16): −1.6 fold
GenBank BM119226, vs mice given only isoproterenol
  FC GTL2, imprinted maternally expressed untranslated mRNA (Gtl2): 1.7
GenBank BM120053, 1st listing, vs mice given only isoproterenol
  FC Ectodermal-neural cortex 1 (E1): −2.0
GenBank BM120053, 2nd listing, vs mice given only isoproterenol
  FC Ectodermal-neural cortex 1 (E1): −1.9
GenBank BM121149, vs mice given only isoproterenol
  FC Pellino 2(peli2): −1.9
GenBank BM194994, vs mice given only isoproterenol
  FC REST corepressor 1 (Rcor1): 3.3
GenBank BM219553, vs mice given only isoproterenol
  FC EST: −2.6
GenBank BM228590, 1st listing, vs mice given only isoproterenol
  FC Phospholipase D1 (Pld1): −2.0
GenBank BM228590, 2nd listing, vs mice given only isoproterenol
  FC Phospholipase D1 (Pld1): −1.6
GenBank BM229104, vs mice given only isoproterenol
  FC SET translocation (Set): 2.0
GenBank BM237933, vs mice given only isoproterenol
  FC p53 regulated PA26 nuclear protein (Sestrin 1) (Sesn1): −2.4
GenBank BM241485, vs mice given only isoproterenol
  FC Macrophage activation 2 (Mpa21): −3.6
GenBank BM243379, vs mice given only isoproterenol
  FC Prohibitin (Phb): −2.1
GenBank BM244064, vs mice given only isoproterenol
  FC Serine iorporator 3 (Seri3): −1.8
